Common to all, as to format: cell-based
Test [1] has as its target T1, human TLR7 (Homo sapiens, UniProt Q9NYK1).
T1 construct: host or cells: HEK-Blue cells
T1 sequence (Q9NYK1 27-1049): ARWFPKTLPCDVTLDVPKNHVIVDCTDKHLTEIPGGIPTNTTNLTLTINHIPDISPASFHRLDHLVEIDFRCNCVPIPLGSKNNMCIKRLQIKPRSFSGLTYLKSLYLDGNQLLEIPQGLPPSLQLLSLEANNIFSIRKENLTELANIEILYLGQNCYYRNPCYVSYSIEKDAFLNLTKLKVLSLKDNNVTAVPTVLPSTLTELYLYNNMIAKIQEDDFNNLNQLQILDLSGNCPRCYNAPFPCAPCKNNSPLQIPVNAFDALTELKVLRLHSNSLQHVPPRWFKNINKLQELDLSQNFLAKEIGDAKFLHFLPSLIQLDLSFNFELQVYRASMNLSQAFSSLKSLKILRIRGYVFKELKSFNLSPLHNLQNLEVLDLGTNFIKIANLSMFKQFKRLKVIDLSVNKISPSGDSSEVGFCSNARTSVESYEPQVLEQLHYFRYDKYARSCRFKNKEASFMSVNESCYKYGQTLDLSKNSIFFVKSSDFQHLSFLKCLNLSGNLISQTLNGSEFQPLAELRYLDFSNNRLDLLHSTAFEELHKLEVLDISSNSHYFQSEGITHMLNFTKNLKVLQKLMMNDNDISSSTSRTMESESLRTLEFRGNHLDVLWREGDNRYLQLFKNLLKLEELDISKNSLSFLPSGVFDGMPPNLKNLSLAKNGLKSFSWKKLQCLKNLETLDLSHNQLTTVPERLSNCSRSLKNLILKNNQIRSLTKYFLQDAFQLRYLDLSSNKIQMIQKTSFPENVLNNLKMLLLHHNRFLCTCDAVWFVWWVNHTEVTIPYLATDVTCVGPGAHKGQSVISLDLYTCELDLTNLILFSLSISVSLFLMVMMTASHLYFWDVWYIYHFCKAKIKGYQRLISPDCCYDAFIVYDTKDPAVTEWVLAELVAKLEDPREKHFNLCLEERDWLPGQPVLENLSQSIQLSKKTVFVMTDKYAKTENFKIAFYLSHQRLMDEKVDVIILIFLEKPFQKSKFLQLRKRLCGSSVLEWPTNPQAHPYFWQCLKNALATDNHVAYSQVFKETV
As to the kind of experiment: TLR7 inhibition reporter assay (HEK-Blue, SEAP). As to conditions: HEK-Blue cells overexpressing human TLR7, ligand gardiquimod 2.5 μM, 22 hour incubation. How it is done: (§1) TLR7/8/9 Inhibition Reporter Assays
(§2) HEK-Blue™-cells (Invivogen) overexpressing human TLR7. TLR8 or TLR9 receptors were used for screening inhibitors of these receptors using an inducible SEAP (secreted embryonic alkaline phosphatase) reporter gene under the control of the IFN-β minimal promoter fused to five NF-κB and AP-1-binding sites. Cells are seeded into Greiner 384 well plates (15000 cells per well) that are pre dispensed (by ECHO) with testing compounds in DMSO to yield a final dose response concentration range of 0.85 nM-50 μM. After a 60 minute compound pre-treatment in 37 degree incubator, the cells are then stimulated with a TLR7 ligand (gardiquimod at a final concentration of 2.5 μM), TLR8 ligand (R848 at a final concentration of 14.25 μM) or TLR9 ligand (ODN2006 at a final concentration of 200 nM) to activate NF-κB and AP-1 which induce the production of SEAP. After a 22 hour incubation at 37° C., 5% CO2, SEAP levels are determined with the addition of HEK-Blue™ Detection reagent (Invivogen), a cell culture medium that allows for detection of SEAP, according to manufacturer's specifications. The percent inhibition is determined as the % reduction in the HEK-Blue signal present in […].

In test [2] the target is T2, human TLR9 (Homo sapiens, UniProt Q9NR96).
T2 construct: host or cells: HEK-Blue cells
T2 sequence (Q9NR96 26-1032): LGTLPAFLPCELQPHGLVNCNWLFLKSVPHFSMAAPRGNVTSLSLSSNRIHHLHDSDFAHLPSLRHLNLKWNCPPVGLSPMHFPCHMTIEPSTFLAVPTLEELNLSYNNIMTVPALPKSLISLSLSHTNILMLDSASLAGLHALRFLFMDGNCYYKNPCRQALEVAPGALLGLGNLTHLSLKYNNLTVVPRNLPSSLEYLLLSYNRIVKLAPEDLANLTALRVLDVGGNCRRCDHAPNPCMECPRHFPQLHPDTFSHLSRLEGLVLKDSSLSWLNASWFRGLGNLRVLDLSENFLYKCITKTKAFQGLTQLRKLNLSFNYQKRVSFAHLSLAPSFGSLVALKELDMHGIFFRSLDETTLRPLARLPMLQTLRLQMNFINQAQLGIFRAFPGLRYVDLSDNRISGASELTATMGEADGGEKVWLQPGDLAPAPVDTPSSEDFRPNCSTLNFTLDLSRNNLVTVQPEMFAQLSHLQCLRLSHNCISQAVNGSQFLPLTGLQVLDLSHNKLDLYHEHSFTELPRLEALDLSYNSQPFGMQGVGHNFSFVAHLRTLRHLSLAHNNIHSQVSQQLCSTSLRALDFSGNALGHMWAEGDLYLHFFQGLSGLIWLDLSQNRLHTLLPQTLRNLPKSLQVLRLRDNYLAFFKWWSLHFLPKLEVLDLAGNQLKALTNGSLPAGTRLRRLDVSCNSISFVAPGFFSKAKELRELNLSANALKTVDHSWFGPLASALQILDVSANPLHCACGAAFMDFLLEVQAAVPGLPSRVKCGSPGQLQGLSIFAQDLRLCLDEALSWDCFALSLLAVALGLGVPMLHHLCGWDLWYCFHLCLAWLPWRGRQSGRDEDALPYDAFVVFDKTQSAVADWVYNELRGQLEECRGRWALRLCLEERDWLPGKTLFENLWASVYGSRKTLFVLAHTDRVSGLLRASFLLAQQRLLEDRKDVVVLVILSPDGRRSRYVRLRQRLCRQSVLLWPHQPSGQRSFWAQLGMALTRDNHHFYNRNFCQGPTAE
The test can be described thus: TLR9 inhibition reporter assay (HEK-Blue, SEAP). The conditions noted are these: HEK-Blue cells overexpressing human TLR9, ligand ODN2006 200 nM, 22 hour incubation. How it is done:
as §1, §2
For orientation: Reporter assays use an easily measured gene product as a stand-in for the process of interest.

The target in test [3] is T3, human TLR8 (Homo sapiens, UniProt Q9NR97).
T3 construct: host or cells: HEK-Blue cells
T3 sequence (Q9NR97 27-1041): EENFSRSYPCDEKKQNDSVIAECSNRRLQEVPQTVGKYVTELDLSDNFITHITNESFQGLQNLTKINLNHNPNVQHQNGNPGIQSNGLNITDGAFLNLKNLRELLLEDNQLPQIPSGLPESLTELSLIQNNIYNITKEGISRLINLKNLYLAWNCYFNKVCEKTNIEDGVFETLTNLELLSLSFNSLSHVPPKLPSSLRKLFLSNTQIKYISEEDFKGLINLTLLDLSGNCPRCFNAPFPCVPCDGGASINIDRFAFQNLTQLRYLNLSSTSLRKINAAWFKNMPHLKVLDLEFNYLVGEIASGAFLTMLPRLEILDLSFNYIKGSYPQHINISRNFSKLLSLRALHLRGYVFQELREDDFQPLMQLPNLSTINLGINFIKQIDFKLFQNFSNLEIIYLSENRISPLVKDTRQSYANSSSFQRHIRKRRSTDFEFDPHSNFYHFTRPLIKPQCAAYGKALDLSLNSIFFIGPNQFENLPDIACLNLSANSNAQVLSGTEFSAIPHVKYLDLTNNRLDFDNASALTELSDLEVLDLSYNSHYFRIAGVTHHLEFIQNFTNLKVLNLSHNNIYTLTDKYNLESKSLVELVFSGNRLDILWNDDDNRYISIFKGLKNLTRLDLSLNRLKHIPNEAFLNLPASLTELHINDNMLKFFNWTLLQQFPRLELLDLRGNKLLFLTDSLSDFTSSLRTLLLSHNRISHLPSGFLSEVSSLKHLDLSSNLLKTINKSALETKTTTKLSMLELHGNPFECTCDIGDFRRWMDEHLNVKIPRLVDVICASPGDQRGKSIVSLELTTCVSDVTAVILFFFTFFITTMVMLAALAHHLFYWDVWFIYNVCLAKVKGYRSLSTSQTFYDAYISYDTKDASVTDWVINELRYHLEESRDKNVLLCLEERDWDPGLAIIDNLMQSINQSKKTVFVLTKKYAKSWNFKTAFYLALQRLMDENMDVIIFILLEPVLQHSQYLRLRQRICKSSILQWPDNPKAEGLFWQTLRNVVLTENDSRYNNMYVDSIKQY
As to the kind of experiment: TLR8 inhibition reporter assay (HEK-Blue, SEAP). As to conditions: HEK-Blue cells overexpressing human TLR8, ligand R848 14.25 μM, 22 hour incubation. As to the method:
as §1, §2

This passage reports IC50 results from patent publication US20250177363A1, “SUBSTITUTED IMIDAZOPYRIDINYL COMPOUNDS USEFUL AS INHIBITORS OF TLR9” (Bristol-Myers Squibb Company, priority 2022, published 2025).

A value given as a limit tells only on which side of the number the result lay.

What is called IC50 is the midpoint of a concentration-inhibition curve. Turning to `Cc1cc(-c2ccc(N3CCN(C(C)C)CC3)cc2)nc2c1nc(-c1ccc(S(C)(=O)=O)cc1)n2C` [Example 7, 5-(4-(4-isopropylpiperazin-1-yl)phenyl)-3,7-dimethyl-2-(4-(methylsulfonyl)phenyl)-3H-imidazo[4,5-b]pyridine], the results for the IC50 in test [1], in test [2] and in test [3] were 29 µM, 1.2 µM and over 50 µM, respectively.

Regarding `Cc1cc(-c2ccc(N3CCN(CC(C)C)CC3)cc2)nc2c1nc(-c1ccc(S(C)(=O)=O)cc1)n2C` [Example 8, 5-(4-(4-isobutylpiperazin-1-yl)phenyl)-3,7-dimethyl-2-(4-(methylsulfonyl)phenyl)-3H-imidazo[4,5-b]pyridine], the IC50 in test [1] is over 50 µM; in test [2] it was 1.7 µM; in test [3], over 50 µM.

Consider `Cc1cc(-c2ccc(C3CCN(C)CC3)cc2)nc2c1nc(-c1ccc(S(C)(=O)=O)cc1)n2C1CC1` [Example 9, 3-cyclopropyl-7-methyl-5-(4-(1-methylpiperidin-4-yl)phenyl)-2-(4-(methylsulfonyl)phenyl)-3H-imidazo[4,5-b]pyridine], for which the IC50 in test [1] is 13 µM; in test [2], 1.7 µM; in test [3], over 50 µM.

Regarding `COc1ccc(-c2nc3c(C)cc(-c4ccc(N5CCN(C(C)C)CC5)cc4)nc3n2C)cc1OC` [Example 10, 2-(3,4-dimethoxyphenyl)-5-(4-(4-isopropylpiperazin-1-yl)phenyl)-3,7-dimethyl-3H-imidazo[4,5-b]pyridine], the results for the half-inhibitory concentration (IC50) in test [1], in test [2] and in test [3] were 1.9 µM, 0.75 µM and 17 µM, respectively.

In the case of `COc1ccc(-c2nc3ncc(C4CCN(C5CCN(C6CC6)CC5)CC4)cc3[nH]2)cc1OC` [Example 13, 6-(1′-cyclopropyl-[1,4′-bipiperidin]-4-yl)-2-(3,4-dimethoxyphenyl)-1H-imidazo[4,5-b]pyridine], the IC50 was over 25 µM in test [1], 1.2 µM in test [2] and over 25 µM in test [3].

Turning to `CC(C)N1CCC(N2CCC(c3cnc4nc(-c5ccc(S(C)(=O)=O)cc5)n(C)c4c3)CC2)CC1` [Example 14, 6-(1′-isopropyl-[1,4′-bipiperidin]-4-yl)-1-methyl-2-(4-(methylsulfonyl)phenyl)-1H-imidazo[4,5-b]pyridine], the half-maximal inhibitory concentration (IC50) in test [1] is over 50 µM; in test [2] it was 3.1 µM; in test [3], over 50 µM.

On to `CC(C)CN1CCC(N2CCC(c3cnc4nc(-c5ccc(S(C)(=O)=O)cc5)n(C)c4c3)CC2)CC1` [Example 15, 6-(1′-isobutyl-[1,4′-bipiperidin]-4-yl)-1-methyl-2-(4-(methylsulfonyl)phenyl)-1H-imidazo[4,5-b]pyridine], for which the values for the half-inhibitory concentration (IC50) in test [1], in test [2] and in test [3] were 6.4 µM, 0.16 µM and over 25 µM, respectively.

With `Cn1c(-c2ccc(S(C)(=O)=O)cc2)nc2ncc(C3CCN(C4CCN(C5CC5)CC4)CC3)cc21` [Example 16, 6-(1′-cyclopropyl-[1,4′-bipiperidin]-4-yl)-1-methyl-2-(4-(methylsulfonyl)phenyl)-1H-imidazo[4,5-b]pyridine], the figures for the half-maximal inhibitory concentration (IC50) in test [1], in test [2] and in test [3] were over 25 µM, 1.4 µM and over 25 µM, respectively.

As for `CC(C)N1CCC(N2CCC(c3ccc4nc(-c5ccc(S(C)(=O)=O)cc5)n(C)c4n3)CC2)CC1` [Example 17, 5-(1′-isopropyl-[1,4′-bipiperidin]-4-yl)-3-methyl-2-(4-(methylsulfonyl)phenyl)-3H-imidazo[4,5-b]pyridine], the half-inhibitory concentration (IC50) in test [1] is 18 µM; in test [2], 0.071 µM; in test [3] it was over 50 µM.

For the compound `CC(C)CN1CCC(N2CCC(c3ccc4nc(-c5ccc(S(C)(=O)=O)cc5)n(C)c4n3)CC2)CC1` [Example 18, 5-(1′-isobutyl-[1,4′-bipiperidin]-4-yl)-3-methyl-2-(4-(methylsulfonyl)phenyl)-3H-imidazo[4,5-b]pyridine], the IC50 in test [1] is 2.8 µM; in test [2], 0.78 µM; in test [3], over 25 µM.

For the compound `Cn1c(-c2ccc(S(C)(=O)=O)cc2)nc2ccc(C3CCN(C4CCN(C5CC5)CC4)CC3)nc21` [Example 19, 5-(1′-cyclopropyl-[1,4′-bipiperidin]-4-yl)-3-methyl-2-(4-(methylsulfonyl)phenyl)-3H-imidazo[4,5-b]pyridine], the values for the half-inhibitory concentration (IC50) in test [1], in test [2] and in test [3] were 18 µM, 0.87 µM and over 25 µM, respectively.
